Patent publication US20190031618A1, “BENZIMIDAZOLE DERIVATIVES USEFUL AS CB-1 INVERSE AGONISTS” (Janssen Pharmaceutica NV, priority 2015, published 2019)

Experiments:
[1] = biological target: Human CB2R (Cannabinoid receptor 2) (Homo sapiens, UniProt P34972); assay: CB-2 in vitro cAMP (HTRF) assay; format: cell-based; settings: HEK cells, cAMP HTRF, 250 nM forskolin; mean where tested more than once; read-out: CB2 HEK_cAMP EC50
Description: (§1) CB1 and CB2 receptors are Gi-coupled GPCR. Activation of CB1 and CB2 receptors results in a decrease in cAMP production. An inverse agonist of the CB1 or CB2 receptor results in the opposite effect, an increase of cAMP production. The principle of this assay is based on HTRF® technology (Homogeneous Time-Resolved Fluorescence). The method is a competitive immunoassay between native cAMP produced by cells and the cAMP labeled with the fluorophore d2. The tracer binding is quantified by a Mab anti-cAMP labeled with Eu3+TBP-NHS Cryptate (supplied as part of the assay kit). The specific signal (i.e. energy transfer) is inversely proportional to the concentration of cAMP in the standard or sample.
Human CB1R (Cannabinoid receptor 1) was stably transfected in HEK-293 cells (DiscoveRx, cat: 93-0200C1). Human CB2R (Cannabinoid receptor 2) was stably transfected in HEK-293 cells (DiscoveRx, cat: 93-0201C1). Cell cultures were maintained in media: DMEM (Invitrogen Cat#12430-054) supplemented with 10% HI FBS (Invitrogen Cat#16140-071), 1% L-glutamine (Invitrogen Cat#25030-081), 0.2 mg/ml Hygromycin B (Invitrogen Cat#10687-010), 600 μg/mL G418 (Invitrogen Cat#10131-035), and 1× Penn/Strep (Invitrogen 15140-122). After cell expansion, aliquots were cryo-stored in media containing 5% DMSO (Pierce Cat#20684).
(§2) One day prior to experiments media was warmed to 37° C. and the cryo-stored cells were thawed in a 37° C. water bath. The cells were then added to media (10× volume) and the mixture was centrifuged at 1000 RPM for 5 min. The supernate was removed and the cells were re-suspended in media. A sample of the cell suspension was evaluated on a Cedex XS automated cell counter (Innovatis Systems) to determine viable cells/ml. Additional media was added to the cells to achieve a final cell density of 4E5 cells/mL. The cells were then plated into 384 well PDL white solid bottom plates (Greiner, Cat#781945) at 20 μL per well using a Multidrop (Thermo Scientific). Cells were removed from Row P (location of cAMP standards). Two columns of cells were plated into a clear bottom 384 well PDL coated plate (Greiner, Cat#781944) to view confluence the day of the assay. The cell plates were lidded and stored for 15 minutes in a hood, then transferred to an incubator (37° C., 5% CO2, 95% humidity) overnight.
DMSO was added to all wells of 384 well V bottom polystyrene plate (Greiner, Cat#781280) except to columns 1 and 13, rows O and P and wells M13-M23 and N13-N23. Test compounds (60 μL, 10 mM) were added to Column 1 and 13 (A1 through N1 and A13 through L13). Test compounds were serially diluted 1/3 by transferring and mixing 20 μl sample with 40 μL DMSO.
DMSO (40 μL) was added to wells of 384 well V bottom polystyrene plate: O2 through O11, M14 through M23, N14 through N23, and O14 through O23. AM630 (also known as [6-iodo-2-methyl-1-[2-(4-morpholinyl)ethyl]-1H-indol-3-yl](4-methoxyphenyl)-methanone, Cayman Chemical, Cat#10006974) (60 μL, 10 mM) was added to O1; and 1-(2,4-dichlorophenyl)-7-[(4-fluorophenyl)methylene]-4,5,6,7-tetrahydro-N-1-piperidinyl-1H-benzimidazole-3-carboxamide (60 μL, 10 mM) was added to N13. The control was serially diluted 1/3 by transferring and mixing 20 μl sample with 40 μL DMSO. This process resulted 11 doses per control, 10 mM to […].
Cells plated the day prior to the assay in clear bottom plates were viewed on an inverse microscope to ensure confluency in the range of 60-75%. […]

[2] = biological target: Human CB1R (Cannabinoid receptor 1) (Homo sapiens, UniProt P21554); assay: CB-1 in vitro cAMP (HTRF) assay; format: cell-based; settings: HEK cells, cAMP HTRF, 250 nM forskolin; mean where tested more than once; read-out: CB1 HEK_cAMP EC50
Chain of Human CB1R (Cannabinoid receptor 1) (P21554 whole entry): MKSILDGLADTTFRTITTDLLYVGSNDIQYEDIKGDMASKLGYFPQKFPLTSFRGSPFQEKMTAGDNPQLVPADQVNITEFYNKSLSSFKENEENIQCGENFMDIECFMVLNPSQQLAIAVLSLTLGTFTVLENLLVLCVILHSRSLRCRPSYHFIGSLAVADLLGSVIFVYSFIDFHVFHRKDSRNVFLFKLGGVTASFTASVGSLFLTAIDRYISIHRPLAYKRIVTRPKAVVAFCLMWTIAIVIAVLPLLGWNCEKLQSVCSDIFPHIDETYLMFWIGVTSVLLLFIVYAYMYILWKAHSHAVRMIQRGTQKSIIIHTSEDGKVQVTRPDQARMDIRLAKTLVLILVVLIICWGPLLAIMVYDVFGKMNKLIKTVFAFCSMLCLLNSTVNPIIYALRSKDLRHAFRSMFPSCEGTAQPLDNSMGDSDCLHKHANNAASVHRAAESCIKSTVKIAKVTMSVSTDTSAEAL
Description: as §1
Human CB1R (Cannabinoid receptor 1) was stably transfected in HEK-293 cells (DiscoveRx, cat: 93-0200C1). Human CB2R (Cannabinoid receptor 2) was stably transfected in HEK-293 cells (DiscoveRx, cat: 93-0201C1).
as §2, with “The cells were then plated into 384 well PDL white solid bottom plates (Greiner, Cat#781945) at 20 μL per well using a Multidrop (Thermo Scientific).” left out, “Two columns of cells were plated into a clear bottom 384 well PDL coated plate (Greiner, Cat#781944) to view confluence the day of the assay.” left out
Test compounds (60 μL, 10 mM) were added to Column 1 and 13 (A1 through N1 and A13 through L13). Test compounds were serially diluted 1/3 by transferring and mixing 20 μl sample with 40 μL DMSO.
DMSO (40 μL) was added to wells of 384 well V bottom polystyrene plate: O2 through O11, M14 through M23, N14 through N23, and O14 through O23. […] The control was serially diluted 1/3 by transferring and mixing 20 μl sample with 40 μL DMSO. This process resulted 11 doses per control, 10 mM to 0.5 μM.
Cells plated the day prior to the assay in clear bottom plates were viewed on an inverse microscope to ensure confluency in the range of 60-75%.
A FLEXDROP (Perkin Elmer) was cleaned with ethanol then water, and primed with Buffer 2. A 384 well V bottom polypropylene plate containing d2 labelled cAMP and a second 384 well V bottom polypropylene plate containing anti-cAMP was prepared (50 μl per well). Media as “dumped” from the cell plate and 30 μL Buffer 1 was added to each well using a Multidrop. The content of the cell plate was again “dumped” and 10 μL Buffer 2 was added to each well using a Flexdrop. […] The cell plate was mixed (Speed 6, Lab-Line Instruments Titer Plate Shaker) and centrifuged (1000 RPMs, 1 min). […] The cell plate was again mixed (speed 6) and centrifuged (1000 RPMs, 1 min). The cell plate was incubated for 30 minutes at room temperature (˜27° C.). The contents of row P were removed and the cAMP standard dilutions were added in duplicate to Row P (P1-12 and P13-24). After incubation, 6 μL d2 labelled cAMP and 6 μL of Anti-cAMP were added to all wells of the cell plate using a BioMek FX (Beckman Coulter). The cell plate was again mixed (speed 6) and centrifuged (1000 RPMs, 1 min) and was incubated for 60 minutes in the dark at room Temp (˜27° C.).
After this final incubation, the cell plate was read in HTRF mode (fluorescence at 665 nm and 620 nm) on an Envision plate Reader (Perkin Elmer). The Envision reader outputs a ratio of channel 1/channel 2 fluorescence×10,000 (Normalized signal (NS)). Amount of cAMP in nM was calculated for each well (based on NS) from a cAMP standard curve located on each plate (at P1-12 and P13-24). EC50 values were determined from a 4-point fit (Hill equation) of a single 11-point compound dosing. Hill slope was fixed at 1.0.

Chain of Human CB2R (Cannabinoid receptor 2) (P34972 whole entry): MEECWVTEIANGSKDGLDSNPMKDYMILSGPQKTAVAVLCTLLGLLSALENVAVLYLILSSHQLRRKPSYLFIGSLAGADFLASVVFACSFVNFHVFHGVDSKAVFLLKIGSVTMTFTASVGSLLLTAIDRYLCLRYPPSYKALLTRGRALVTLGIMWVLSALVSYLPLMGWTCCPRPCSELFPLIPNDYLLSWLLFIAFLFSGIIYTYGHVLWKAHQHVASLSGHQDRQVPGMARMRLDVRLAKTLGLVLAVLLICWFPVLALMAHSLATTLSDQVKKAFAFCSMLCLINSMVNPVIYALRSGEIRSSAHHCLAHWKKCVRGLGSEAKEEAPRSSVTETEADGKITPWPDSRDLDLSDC

| SMILES | EC50 [1] | EC50 [2] |
| --- | --- | --- |
| O=C(OCc1ccccc1)N1CCC(n2c(C3CC3)nc3ccc(C(c4ccc(Cl)cc4)c4ccc(Cl)cc4)cc32)CC1 [Example 69] | 1210 nM | 8.6 nM |
| O=C(NCCO)c1cccc(CN2CCC(n3c(C4CC4)nc4ccc(C(c5ccc(Cl)cc5)c5ccc(Cl)cc5)cc43)CC2)c1 [Example 70] | 5820 nM | 8.3 nM |
| O=C(OC1CCCC1)N1CCC(n2c(C3CC3)nc3ccc(C(c4ccc(Cl)cc4)c4ccc(Cl)cc4)cc32)CC1 [Example 71] | 4880 nM | 27.4 nM |
| CCNC(=O)N1CCC(n2c(C3CC3)nc3ccc(C(c4ccc(Cl)cc4)c4ccc(Cl)cc4)cc32)CC1 [Example 73] | 5250 nM | 18.5 nM |
| O=C(NC1CCCC1)N1CCC(n2c(C3CC3)nc3ccc(C(c4ccc(Cl)cc4)c4ccc(Cl)cc4)cc32)CC1 [Example 74] | 5390 nM | 70.6 nM |
| O=C(NCc1ccccc1)N1CCC(n2c(C3CC3)nc3ccc(C(c4ccc(Cl)cc4)c4ccc(Cl)cc4)cc32)CC1 [Example 75] | 1150 nM | 35.7 nM |
| C#CCN1CCC(n2c(C3CC3)nc3ccc(C(c4ccc(Cl)cc4)c4ccc(Cl)cc4)cc32)CC1 [Example 76] | 2060 nM | 6.7 nM |
| O=C(O)CCc1nc2ccc(C(c3ccc(Cl)cc3)c3ccc(Cl)cc3)cc2n1C1CCN(S(=O)(=O)C(F)(F)F)CC1 [Example 78] | > 21000 nM | 151 nM |
| O=C(O)c1cccc(CN2CCC(n3c(C4CC4)nc4ccc(C(c5ccc(Cl)cc5)c5ccc(Cl)cc5)cc43)CC2)c1O [Example 79] | 5090 nM | 32.6 nM |
| O=C(O)c1ccc(C(F)(F)F)c(CN2CCC(n3c(C4CC4)nc4ccc(C(c5ccc(Cl)cc5)c5ccc(Cl)cc5)cc43)CC2)c1 [Example 80] | 11400 nM | 86.6 nM |
| O=C(O)c1cc(CN2CCC(n3c(C4CC4)nc4ccc(C(c5ccc(Cl)cc5)c5ccc(Cl)cc5)cc43)CC2)ccc1O [Example 81] | 3200 nM | 14.1 nM |
| O=C(O)c1ccc(O)c(CN2CCC(n3c(C4CC4)nc4ccc(C(c5ccc(Cl)cc5)c5ccc(Cl)cc5)cc43)CC2)c1 [Example 82] | > 42000 nM | 995 nM |
| O=C(O)c1cc(CN2CCC(n3c(C4CC4)nc4ccc(C(c5ccc(Cl)cc5)c5ccc(Cl)cc5)cc43)CC2)ccn1 [Example 83] | 11300 nM | 42.6 nM |
| FC(F)(F)c1ccccc1CN1CCC(n2c(C3CC3)nc3ccc(C(c4ccc(Cl)cc4)c4ccc(Cl)cc4)cc32)CC1 [Example 84] | > 10000 nM | 67.7 nM |
| O=C(O)c1cccc(CN2CCC(n3c(C4CC4)nc4ccc(C(c5ccc(Cl)cc5)c5ccc(Cl)cc5)cc43)CC2)c1F [Example 85] | 8100 nM | 17.4 nM |
| CC(c1ccc(C(=O)O)o1)N1CCC(n2c(C3CC3)nc3ccc(C(c4ccc(Cl)cc4)c4ccc(Cl)cc4)cc32)CC1 (stereo not drawn) [Example 86] | 10200 nM | 15 nM |
| CC(c1cccc(C(=O)O)c1)N1CCC(n2c(C3CC3)nc3ccc(C(c4ccc(Cl)cc4)c4ccc(Cl)cc4)cc32)CC1 (stereo not drawn) [Example 87] | 9000 nM | 9 nM |
| O=C(O)c1ccnc(CN2CCC(n3c(C4CC4)nc4ccc(C(c5ccc(Cl)cc5)c5ccc(Cl)cc5)cc43)CC2)c1 [Example 88] | > 10000 nM | 33 nM |
| Oc1cccc(CN2CCC(n3c(C4CC4)nc4ccc(C(c5ccc(Cl)cc5)c5ccc(Cl)cc5)cc43)CC2)c1 [Example 90] | > 10000 nM | 22.4 nM |
| O=C(O)c1cccc(CN2CCC(n3c(C4CC4)nc4ccc(C(c5ccc(Cl)cc5)c5ccc(Cl)cc5)cc43)CC2)c1Cl [Example 91] | 9400 nM | 32.4 nM |
| O=C(O)c1cc(CN2CCC(n3c(C4CC4)nc4ccc(C(c5ccc(Cl)cc5)c5ccc(Cl)cc5)cc43)CC2)cc(C(F)(F)F)c1 [Example 93] | 1750 nM | 63.9 nM |
| O=C(O)c1ccc(Cl)c(CN2CCC(n3c(C4CC4)nc4ccc(C(c5ccc(Cl)cc5)c5ccc(Cl)cc5)cc43)CC2)c1 [Example 94] | 4760 nM | 26.1 nM |
| O=C(O)c1cc(CN2CCC(n3c(C4CC4)nc4ccc(C(c5ccc(Cl)cc5)c5ccc(Cl)cc5)cc43)CC2)ccc1F [Example 95] | > 10000 nM | 11.2 nM |
| Cc1ccc(C(c2ccc(C)cc2)c2ccc3nc(C4CC4)n(C4CCN(Cc5cccc(C(=O)O)c5)CC4)c3c2)cc1 [Example 96] | 7920 nM | 27.3 nM |
| O=C(O)c1cccc(CN2CCC(n3c(C4CC4)nc4ccc(C(c5ccc(F)cc5)c5ccc(F)cc5)cc43)CC2)c1 [Example 97] | > 10000 nM | 18.7 nM |
| O=C(O)c1cccc(CN2CCC(n3c(C4CC4)nc4ccc(C(c5ccc(F)cc5)c5ccc(Cl)cc5)cc43)CC2)c1 (stereo not drawn) [Example 98] | > 10000 nM | 16.2 nM |
| O=C(O)c1cccc(CN2CCC(n3c(C4CC4)nc4ccc(C(c5ccc(Cl)cc5)c5ccc(C(F)(F)F)cc5)cc43)CC2)c1 (stereo not drawn) [Example 99] | 4740 nM | 18.8 nM |
